This note sets out measurements from US20070248955A1, “Use Of Genetic Polymorphisms To Predict Drug-Induced Hepatotoxicity” (NOVARTIS AG, priority 2003, published 2007).

This data set is described as follows: Hepatotoxicity (fold increases of AST or ALT over the upper limit of normal) in the phase II clinical trial. In kind it is in vivo, human. How it is done: Relevant genetic polymorphisms were identified in a multicenter, randomized, double-masked placebo-controlled dose finding phase II trial of N-benzoyl-staurosporine, which was conducted in subjects with diabetic macular edema. The safety of N-benzoyl-staurosporine was evaluated in the subjects and additional pharmacokinetic information on was collected. […] Subjects were flagged as having experienced hepatotoxicity if either aspartate aminotransferase (AST) or alanine aminotransferase (ALT) had fold elevations over the upper limit of normal on visit 3, 4 or 5.
The diagnosis of hepatotoxicity can be accomplished using assays of serum enzyme levels. Serum enzyme assays indicative of liver dysfunction are well-known to those of skill in the medical arts and routine in hospital laboratories. For a definition of hepatotoxicity based upon serum levels of aspartate transaminase (AST) and used in the EXAMPLE: The definition of hepatotoxicity used in this analysis was based on fold increases in serum aspartate transaminase or alanine aminotransferase over the upper limit of normal (ULN) on visits 3, 4 or 5. The upper limit of normal for serum aspartate transaminase is 42 U/L for ages 3-64 and 55 U/L for ages 65 and up; for serum alanine aminotransferase the upper limit of normal is 48 U/L (Smithkline Beecham Clinical Laboratories Reference Alert Ranges). While an elevation of either enzyme at visit 3, 4 or 5 constituted hepatotoxicity, transaminase elevations were disregarded during subsequent visits when the drug was not being administered. Furthermore, subjects who had elevated liver function tests at baseline (visit 2) were not flagged as having experienced hepatotoxicity, regardless of the elevation in their enzyme levels following administration of the drug. Nine subjects were flagged as having experienced hepatotoxicity. Of these, six consented to clinical pharmacogenetic analysis.
Hepatotoxicity and N-benzoyl-staurosporine metabolism. The relationship between the occurrence of hepatotoxicity in the clinical trial and the dose of N-benzoyl-staurosporine administered was examined. The percentage of subjects per dose group that experienced hepatotoxicity are as follows: 3% for 50 mg/day, 8% for 100 mg/day and 14% of those that took 150 mg/day. While most of the subjects that experienced liver toxicity took the highest dose of N-benzoyl-staurosporine, the association between of N-benzoyl-staurosporine dose and hepatotoxicity is not significant (p=0.09; Fisher's Exact).

SMILES strings stand for the structures.

For the compound `CO[C@@H]1[C@H](N(C)C(=O)c2ccccc2)C[C@H]2O[C@]1(C)n1c3ccccc3c3c4c(c5c6ccccc6n2c5c31)C(=O)NC4` [N-benzoyl-staurosporine], the “percentage of subjects per dose group that experienced hepatotoxicity” value came out at 3% (50 mg/day, subjects with diabetic macular edema); 8% (100 mg/day, subjects with diabetic macular edema); 14% (150 mg/day, subjects with diabetic macular edema). Moreover, the “Hepatotoxicity Yes” value is on record as 7% (CPG samples (83 subjects, all arms incl. 0 mg/day)) and 6% (Trial samples (139 subjects, all arms incl. 0 mg/day)). In addition, the “subjects that experienced hepatotoxicity” value (of the 140 subjects enrolled in the clinical trial (all arms)) was “nine”. In addition, under “phase II trial, subjects with diabetic macular edema”, the safety profile result was “good safety profile”.
